According to patent publication US4339535A, “Process for preparing antibiotic EM 4940” (E. R. Squibb & Sons, Inc., priority 1980, dated 1982):

What was measured:
Pseudomonas aeruginosa = experiment: MIC aerobic screen, BA-2 agar; settings: Table II, additional tests
Enterobacter cloacae = experiment: MIC aerobic screen, BA-2 agar; settings: Table II, additional tests; strain 10,459
Streptococcus faecalis = experiment: MIC aerobic screen, BA-2 agar; settings: Table II, additional tests; strain 9011
Escherichia coli = experiment: MIC aerobic screen, BA-2 agar; settings: Table II, additional tests
Salmonella typhimurium = experiment: MIC aerobic screen, BA-2 agar; settings: Table II, additional tests; strain 9201
[1] = system: Acinetobacter calcoaceticus; experiment: MIC aerobic screen, BA-2 agar; settings: Table II, additional tests; strain 8333
Staphylococcus aureus = experiment: MIC aerobic screen, BA-2 agar; settings: Table II, additional tests
Klebsiella aerogenes = experiment: MIC aerobic screen, BA-2 agar; settings: Table II, additional tests; strain 10,436
Shigella sonnei = experiment: MIC aerobic screen, BA-2 agar; assay type: cell-based; settings: Table II, additional tests; strain 8449
Proteus rettgeri = experiment: MIC aerobic screen, BA-2 agar; settings: Table II, additional tests; strain 8217
solubility = assay type: physicochemical; settings: acetonitrile
Klebsiella pneumoniae = experiment: MIC aerobic screen, BA-2 agar; settings: Table II, additional tests; strain 11,066
Proteus morganii = experiment: MIC aerobic screen, BA-2 agar; settings: Table II, additional tests; strain 9774
Serratia marcescens = experiment: MIC aerobic screen, BA-2 agar; settings: Table II, additional tests

Q: For `CC1(O)CC(C(N)=O)N=C1c1ncccc1O` (stereo not drawn) [EM4940B, 2,4-cis-3,4-dihydro-4-hydroxy-5-(3-hydroxy-2-pyridinyl)-4-methyl-2H-pyrrole-2-carboxamide], which “Minimum Inhibitory Concentration” value (Pseudomonas aeruginosa; strain 8754) is on record?
A: 100 µg/mL

Q: And the “Minimum Inhibitory Concentration” value (Pseudomonas aeruginosa; strain 9330)?
A: > 200 µg/mL

Q: What about the “Minimum Inhibitory Concentration” value (Pseudomonas aeruginosa; strain 9545) of the same compound?
A: 12.5 µg/mL

Q: What about the “Minimum Inhibitory Concentration” value (Enterobacter cloacae) of the same compound?
A: 100 µg/mL

Q: And the “Minimum Inhibitory Concentration” value (Streptococcus faecalis)?
A: > 200 µg/mL

Q: And the “Minimum Inhibitory Concentration” value (Escherichia coli; strain 10,404)?
A: 50 µg/mL

Q: And the “Minimum Inhibitory Concentration” value (Escherichia coli; strain 10,857)?
A: 50 µg/mL

Q: And the “Minimum Inhibitory Concentration” value (Salmonella typhimurium)?
A: 50 µg/mL

Q: And the “Minimum Inhibitory Concentration” value [1]?
A: 100 µg/mL

Q: And the “Minimum Inhibitory Concentration” value (Staphylococcus aureus; strain 2400)?
A: > 200 µg/mL

Q: And the “Minimum Inhibitory Concentration” value (Staphylococcus aureus; strain 2661)?
A: > 200 µg/mL

Q: And the “Minimum Inhibitory Concentration” value (Staphylococcus aureus; strain 10,165)?
A: 100 µg/mL

Q: What about the “Minimum Inhibitory Concentration” value (Staphylococcus aureus; strain 11,239) of the same compound?
A: 100 µg/mL

Q: What about the “Minimum Inhibitory Concentration” value (Klebsiella aerogenes) of the same compound?
A: 50 µg/mL

Q: And the “Minimum Inhibitory Concentration” value (Shigella sonnei)?
A: 50 µg/mL

Q: What about the “Minimum Inhibitory Concentration” value (Proteus rettgeri) of the same compound?
A: 50 µg/mL

Q: And the “solubility of B form relative to A form” value (solubility)?
A: more soluble

Q: What about the “Minimum Inhibitory Concentration” value (Klebsiella pneumoniae) of the same compound?
A: 50 µg/mL

Q: And the “Minimum Inhibitory Concentration” value (Proteus morganii)?
A: 100 µg/mL

Q: What about the “Minimum Inhibitory Concentration” value (Serratia marcescens; strain 9782) of the same compound?
A: 50 µg/mL

Q: What about the “Minimum Inhibitory Concentration” value (Serratia marcescens; strain 11,111) of the same compound?
A: 100 µg/mL
